Drawing on PubChem BioAssay AID624118 (National Center for Advancing Translational Sciences (NCATS), 2012), this text covers inhibition for one molecule.

For this data set, the target named is Cytochrome P450 3A4 (Homo sapiens) (UniProt P08684). Briefly: qHTS Assay for Inhibitors of Bacillus subtilis Sfp phosphopantetheinyl transferase (PPTase): CYP 3A4. Conditions: CYP3A4 inhibition, 3 uM, ADME profiling; hits give high values. An excerpt:
The covalent attachment of a phosphopantetheinyl (4'-PP) arm to a variety of synthases and other proteins is a key posttranslational protein modification. The 4'-PP is installed on the proteins post-translationally from coenzyme A (CoA) on a conserved serine residue by action of phosphopantetheinyl transferase (PPTase) enzymes. Phosphopantetheinylation is essential for synthase activity, and removal of the PPTase gene precludes natural product synthesis in microorganisms, or in the case of fatty acid biosynthesis, renders the organism unviable. PPTase enzymes belong to a distinct structural superfamily. Within bacteria, these enzymes are grouped into two classes based upon primary structure, the AcpS-Type and Sfp-Type PPTases.
Sfp-type PPTases, corresponding to an activator of surfactin production in Bacillus subtilis, are responsible for modifying type I polyketide and nonribosomal peptide synthases of prokaryotes. Sfp-type PPTases are responsible for the activation of a variety of pathogen-associated virulence factors. Among these compounds are toxins such as mycolactone from Mycobacterium ulcerans, siderophores such as vibriobactin from Vibrio cholerae or mycobactin from Mycobacterium tuberculosis, as well as the mycolic acids which form the waxy cell wall of Mycobacteria. The biosyntheses of these natural products are considered attractive targets for drug design. […]
Background: qHTS replaces the single test concentration by a dilution series.

Cytochrome P450 3A4 (Homo sapiens), sequence (P08684 whole entry, looked up): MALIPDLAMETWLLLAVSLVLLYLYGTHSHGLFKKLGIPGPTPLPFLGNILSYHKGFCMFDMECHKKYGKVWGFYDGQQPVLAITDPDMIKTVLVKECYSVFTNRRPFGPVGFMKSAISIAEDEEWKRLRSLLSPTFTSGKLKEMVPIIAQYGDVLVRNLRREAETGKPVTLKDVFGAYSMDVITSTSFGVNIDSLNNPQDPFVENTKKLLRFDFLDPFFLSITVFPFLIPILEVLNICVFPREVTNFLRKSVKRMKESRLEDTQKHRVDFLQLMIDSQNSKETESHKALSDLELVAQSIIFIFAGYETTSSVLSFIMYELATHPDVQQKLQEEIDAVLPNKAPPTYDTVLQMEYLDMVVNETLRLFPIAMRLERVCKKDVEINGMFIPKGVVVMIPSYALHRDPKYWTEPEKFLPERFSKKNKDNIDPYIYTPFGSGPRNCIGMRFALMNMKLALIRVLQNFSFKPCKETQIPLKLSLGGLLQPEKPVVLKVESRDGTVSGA

`COc1ccnc(NC(=S)N2CCN(c3ncc(C(F)(F)F)cc3Cl)CC2)c1`: the inhibition (commonly the drop in the measured response relative to a control, in per cent) is 20%.
